Data: article PMC6081437, “The potency of the broad spectrum bacteriocin, bactofencin A, against staphylococci is highly dependent on primary structure, N-terminal charge and disulphide formation” (Scientific Reports, 2018)
Bridge positions count the residues as written; N and C are the ends. Square brackets hold non-standard residues; d marks the D form. Ends that are not written are not given here. Peptide text beside a SMILES is read from it.

The compounds below were run on S. aureus DPC5246. Conditions: DPC5246, pH 6.8.
Format: cell-based, Staphylococcus aureus
Method: Peptides were resuspended at 1000 µM in 50 mM sodium phosphate buffer pH 6.8 and checked for purity by MALDI-TOF-MS. Peptides were serially diluted 1 in 4 to give a dilution series of 250, 62.50, 15.63, 3.91, 0.98 and 0.24 µM and assayed by the agar well diffusion assay described by Ryan et al.[19]. Briefly, 50 µl aliquots of each peptide concentration were plated on a S. aureus DPC5246 indicator plate and the plate incubated at 37 °C. Peptide activity (Minimum Inhibitory Concentration (MIC)) was taken as the lowest concentration of peptide to give a zone of inhibition. All assays were performed in triplicate. The dilution series values were rounded to the nearest whole number to give 1000, 250, 63, 16, 4, 1 and 0.25 µM and data is colour coded for ease of interpretation.

Compound | Activity (Minimum Inhibitory Concentration, MIC) [µM]
CSCC[C@@H]1NC(=O)CNC(=O)[C@H]([C@@H](C)O)NC(=O)[C@@H]2CCCN2C(=O)[C@H](CCSC)NC(=O)CNC(=O)[C@H](CC(N)=O)NC(=O)[C@H](CC(N)=O)NC(=O)[C@H](Cc2ccc(O)cc2)NC(=O)[C@H](C(C)C)NC(=O)[C@H](CCCNC(=N)N)NC(=O)[C@@H](NC(=O)[C@H](CCCNC(=N)N)NC(=O)[C@H](Cc2c[nH]cn2)NC(=O)[C@H](CCCCN)NC(=O)[C@H](CCCCN)NC(=O)[C@H](CCCNC(=N)N)NC(=O)[C@@H](N)CCCCN)CSSC[C@@H](C(=O)O)NC(=O)[C@H](C)NC(=O)[C@H](CCCNC(=N)N)NC(=O)[C@H](Cc2ccc(O)cc2)NC1=O [W21A] (H-KRKKHRCRVYNNGMPTGMYRAC-OH; disulfide 7-22) | 1
CSCC[C@@H]1NC(=O)CNC(=O)[C@H]([C@@H](C)O)NC(=O)[C@@H]2CCCN2C(=O)[C@H](CCSC)NC(=O)CNC(=O)[C@H](CC(N)=O)NC(=O)[C@H](CC(N)=O)NC(=O)[C@H](Cc2ccc(O)cc2)NC(=O)[C@H](C)NC(=O)[C@H](CCCNC(=N)N)NC(=O)[C@@H](NC(=O)[C@H](CCCNC(=N)N)NC(=O)[C@H](Cc2c[nH]cn2)NC(=O)[C@H](CCCCN)NC(=O)[C@H](CCCCN)NC(=O)[C@H](CCCNC(=N)N)NC(=O)[C@@H](N)CCCCN)CSSC[C@@H](C(=O)O)NC(=O)[C@H](Cc2c[nH]c3ccccc23)NC(=O)[C@H](CCCNC(=N)N)NC(=O)[C@H](Cc2ccc(O)cc2)NC1=O [V9A] (H-KRKKHRCRAYNNGMPTGMYRWC-OH; disulfide 7-22) | 4
CSCC[C@@H]1NC(=O)CNC(=O)[C@H]([C@@H](C)O)NC(=O)[C@@H]2CCCN2C(=O)[C@H](CCSC)NC(=O)CNC(=O)[C@H](CC(N)=O)NC(=O)[C@H](CC(N)=O)NC(=O)[C@H](Cc2ccc(O)cc2)NC(=O)[C@H](C(C)C)NC(=O)[C@H](CCCNC(=N)N)NC(=O)[C@@H](NC(=O)[C@H](CCCNC(=N)N)NC(=O)[C@H](Cc2c[nH]cn2)NC(=O)[C@H](CCCCN)NC(=O)[C@H](CCCCN)NC(=O)[C@H](CCCNC(=N)N)NC(=O)[C@@H](N)CCCCN)CSSC[C@@H](C(=O)O)NC(=O)[C@H](Cc2c[nH]c3ccccc23)NC(=O)[C@H](CCCNC(=N)N)NC(=O)[C@H](C)NC1=O [Y19A] (H-KRKKHRCRVYNNGMPTGMARWC-OH; disulfide 7-22) | 1
CSCC[C@@H]1NC(=O)CNC(=O)[C@H]([C@@H](C)O)NC(=O)[C@@H]2CCCN2C(=O)[C@H](CCSC)NC(=O)CNC(=O)[C@H](CC(N)=O)NC(=O)[C@H](CC(N)=O)NC(=O)[C@H](Cc2ccc(O)cc2)NC(=O)[C@H](C(C)C)NC(=O)[C@H](CCCNC(=N)N)NC(=O)[C@@H](NC(=O)[C@H](CCCNC(=N)N)NC(=O)[C@H](Cc2c[nH]cn2)NC(=O)[C@H](CCCCN)NC(=O)[C@H](CCCCN)NC(=O)[C@H](CCCNC(=N)N)NC(=O)[C@@H](N)CCCCN)CSSC[C@@H](C(=O)O)NC(=O)[C@H](Cc2c[nH]c3ccccc23)NC(=O)[C@H](CCCNC(=N)N)NC(=O)[C@@H](Cc2ccc(O)cc2)NC1=O [Y19Yd] (H-KRKKHRCRVYNNGMPTGM[dY]RWC-OH; disulfide 7-22; N-terminus assumed) | 63
CSCC[C@@H]1NC(=O)CNC(=O)[C@H]([C@@H](C)O)NC(=O)[C@@H]2CCCN2C(=O)[C@H](CCSC)NC(=O)CNC(=O)[C@H](CC(N)=O)NC(=O)[C@H](CC(N)=O)NC(=O)[C@H](Cc2ccc(O)cc2)NC(=O)[C@H](C(C)C)NC(=O)[C@H](CCCNC(=N)N)NC(=O)[C@@H](NC(=O)[C@H](CCCNC(=N)N)NC(=O)[C@@H](N)Cc2c[nH]cn2)CSSC[C@@H](C(=O)O)NC(=O)[C@H](Cc2c[nH]c3ccccc23)NC(=O)[C@H](CCCNC(=N)N)NC(=O)[C@H](Cc2ccc(O)cc2)NC1=O [H5-C22] (H-HRCRVYNNGMPTGMYRWC-OH; disulfide 3-18; N-terminus assumed) | 16
CSCC[C@@H]1NC(=O)CNC(=O)[C@H]([C@@H](C)O)NC(=O)[C@@H]2CCCN2C(=O)[C@H](CCSC)NC(=O)CNC(=O)[C@H](CC(N)=O)NC(=O)[C@H](CC(N)=O)NC(=O)[C@H](Cc2ccc(O)cc2)NC(=O)[C@H](C(C)C)NC(=O)[C@H](CCCNC(=N)N)NC(=O)[C@@H](NC(=O)[C@H](CCCNC(=N)N)NC(=O)[C@H](Cc2c[nH]cn2)NC(=O)[C@H](CCCCN)NC(=O)[C@H](CCCCN)NC(=O)[C@H](C)NC(=O)[C@@H](N)CCCCN)CSSC[C@@H](C(=O)O)NC(=O)[C@H](Cc2c[nH]c3ccccc23)NC(=O)[C@H](CCCNC(=N)N)NC(=O)[C@H](Cc2ccc(O)cc2)NC1=O [R2A] (H-KAKKHRCRVYNNGMPTGMYRWC-OH; disulfide 7-22) | 1
CSCC[C@@H]1NC(=O)CNC(=O)[C@H]([C@@H](C)O)NC(=O)[C@@H]2CCCN2C(=O)[C@H](CCSC)NC(=O)CNC(=O)[C@H](CC(N)=O)NC(=O)[C@H](CC(N)=O)NC(=O)[C@@H](Cc2ccc(O)cc2)NC(=O)[C@H](C(C)C)NC(=O)[C@H](CCCNC(=N)N)NC(=O)[C@@H](NC(=O)[C@H](CCCNC(=N)N)NC(=O)[C@H](Cc2c[nH]cn2)NC(=O)[C@H](CCCCN)NC(=O)[C@H](CCCCN)NC(=O)[C@H](CCCNC(=N)N)NC(=O)[C@@H](N)CCCCN)CSSC[C@@H](C(=O)O)NC(=O)[C@H](Cc2c[nH]c3ccccc23)NC(=O)[C@H](CCCNC(=N)N)NC(=O)[C@H](Cc2ccc(O)cc2)NC1=O [Y10Yd] (H-KRKKHRCRV[dY]NNGMPTGMYRWC-OH; disulfide 7-22; N-terminus assumed) | > 1000
CSCC[C@@H]1NC(=O)[C@H](C)NC(=O)[C@H]([C@@H](C)O)NC(=O)[C@@H]2CCCN2C(=O)[C@H](CCSC)NC(=O)CNC(=O)[C@H](CC(N)=O)NC(=O)[C@H](CC(N)=O)NC(=O)[C@H](Cc2ccc(O)cc2)NC(=O)[C@H](C(C)C)NC(=O)[C@H](CCCNC(=N)N)NC(=O)[C@@H](NC(=O)[C@H](CCCNC(=N)N)NC(=O)[C@H](Cc2c[nH]cn2)NC(=O)[C@H](CCCCN)NC(=O)[C@H](CCCCN)NC(=O)[C@H](CCCNC(=N)N)NC(=O)[C@@H](N)CCCCN)CSSC[C@@H](C(=O)O)NC(=O)[C@H](Cc2c[nH]c3ccccc23)NC(=O)[C@H](CCCNC(=N)N)NC(=O)[C@H](Cc2ccc(O)cc2)NC1=O [G17A] (H-KRKKHRCRVYNNGMPTAMYRWC-OH; disulfide 7-22) | 4
CSCC[C@@H]1NC(=O)CNC(=O)[C@H]([C@@H](C)O)NC(=O)[C@@H]2CCCN2C(=O)[C@H](CCSC)NC(=O)CNC(=O)[C@@H](CC(N)=O)NC(=O)[C@H](CC(N)=O)NC(=O)[C@H](Cc2ccc(O)cc2)NC(=O)[C@H](C(C)C)NC(=O)[C@H](CCCNC(=N)N)NC(=O)[C@@H](NC(=O)[C@H](CCCNC(=N)N)NC(=O)[C@H](Cc2c[nH]cn2)NC(=O)[C@H](CCCCN)NC(=O)[C@H](CCCCN)NC(=O)[C@H](CCCNC(=N)N)NC(=O)[C@@H](N)CCCCN)CSSC[C@@H](C(=O)O)NC(=O)[C@H](Cc2c[nH]c3ccccc23)NC(=O)[C@H](CCCNC(=N)N)NC(=O)[C@H](Cc2ccc(O)cc2)NC1=O [N12Nd] (H-KRKKHRCRVYN[dN]GMPTGMYRWC-OH; disulfide 7-22; N-terminus assumed) | 4
KRKKHRCRVYNNGMPTGMYRWS [C22S] | 250

Same assay, conditions: S. aureus DPC5246, agar well diffusion MIC

Compound | fold reduction in activity compared with bactofencin A (wild type) [fold]
CSCC[C@@H]1NC(=O)CNC(=O)[C@H]([C@@H](C)O)NC(=O)[C@@H]2CCCN2C(=O)[C@H](CCSC)NC(=O)CNC(=O)[C@H](CC(N)=O)NC(=O)[C@H](CC(N)=O)NC(=O)[C@H](Cc2ccc(O)cc2)NC(=O)[C@H](C(C)C)NC(=O)[C@H](CCCNC(=N)N)NC(=O)[C@@H](NC(=O)[C@H](CCCNC(=N)N)NC(=O)[C@H](Cc2c[nH]cn2)NC(=O)[C@H](CCCCN)NC(=O)[C@H](CCCCN)NC(=O)[C@H](CCCNC(=N)N)NC(=O)[C@@H](N)CCCCN)CSSC[C@@H](C(=O)O)NC(=O)[C@H](Cc2c[nH]c3ccccc23)NC(=O)[C@H](CCCNC(=N)N)NC(=O)[C@@H](Cc2ccc(O)cc2)NC1=O [Y19Yd] (H-KRKKHRCRVYNNGMPTGM[dY]RWC-OH; disulfide 7-22; N-terminus assumed) | 63
KRKKHRCRVYNNGMPTGMYRWS [C22S] | 250
